Results: patent US20230219904A1 (SYNGENTA CROP PROTECTION AG, priority 2020, published 2023)

Columns and labels:
Assay type in all cases: in vivo
Details in all cases: applied at 125 g/ha, evaluated after 13 days
[1] = tested on: Ipomoea hederacea (IPOHE); assay: Post-emergence herbicidal glasshouse test (Table B1)
How it was run: (§1)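 Pre: spray 1 d after sowing; post: spray after 8 d growth. Rate 500 g/h (default); vehicle acetone/water 50:50, 0.5% Tween 20. Glasshouse 24/16° C, 14 h light, 65% humidity. Readout % damage at 13 d, 5-point scale.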

[2] = tested on: Echinochloa crus-galh (ECHCG); assay: as above
How it was run: as §1

Setaria faberi (SETFA) [3] = assay: as above
How it was run: as §1

[4] = tested on: Amaranthus retoflexus (AMARE); assay: as above
How it was run: as §1

[5] = tested on: Abutilon theophrasti (ABUTH); assay: as above
How it was run: as §1

[6] = tested on: Ipomoea hederacea (IPOHE); assay: Pre-emergence herbicidal glasshouse test (Table B1)
How it was run: as §1

[7] = tested on: Echinochloa crus-galh (ECHCG); assay: as above
How it was run: as §1

Setaria faberi (SETFA) [8] = assay: as above
How it was run: as §1

[9] = tested on: Amaranthus retoflexus (AMARE); assay: as above
How it was run: as §1

[10] = tested on: Abutilon theophrasti (ABUTH); assay: as above
How it was run: as §1

Structure (SMILES)	POST Application IPOHE, percentage damage on five-point scale [1]	POST Application ECHCG, percentage damage on five-point scale [2]	POST Application SETFA, percentage damage on five-point scale (Setaria faberi (SETFA) [3])	POST Application AMARE, percentage damage on five-point scale [4]	POST Application ABUTH, percentage damage on five-point scale [5]	PRE Application IPOHE, percentage damage on five-point scale [6]	PRE Application ECHCG, percentage damage on five-point scale [7]	PRE Application SETFA, percentage damage on five-point scale (Setaria faberi (SETFA) [8])	PRE Application AMARE, percentage damage on five-point scale [9]	PRE Application ABUTH, percentage damage on five-point scale [10]
Cn1nnnc1NC(=O)c1ccc(OC(F)F)c(NC(=O)C2CC2(F)F)c1Cl (stereo not drawn) [Compound 1.035]	4 (4=60-79%)	4 (4=60-79%)	4 (4=60-79%)	4 (4=60-79%)	4 (4=60-79%)	3 (3=40-59%)	3 (3=40-59%)	4 (4=60-79%)	5 (5=80-100%)	5 (5=80-100%)
Cn1nnnc1NC(=O)c1ccc(OC(F)F)c(NC(=O)CC2CC2)c1Cl [Compound 1.036]	4 (4=60-79%)	5 (5=80-100%)	5 (5=80-100%)	5 (5=80-100%)	5 (5=80-100%)	4 (4=60-79%)	5 (5=80-100%)	5 (5=80-100%)	5 (5=80-100%)	5 (5=80-100%)
CN(C(=O)CC1CC1)c1c(OC(F)F)ccc(C(=O)Nc2nnnn2C)c1Cl [Compound 1.037]	4 (4=60-79%)	5 (5=80-100%)	5 (5=80-100%)	5 (5=80-100%)	5 (5=80-100%)	4 (4=60-79%)	5 (5=80-100%)	4 (4=60-79%)	5 (5=80-100%)	5 (5=80-100%)
Cc1cc(C(=O)Nc2c(OC(F)F)ccc(C(=O)Nc3nnnn3C)c2Cl)no1 [Compound 1.044]	4 (4=60-79%)	2 (2=20-39%)	3 (3=40-59%)	5 (5=80-100%)	3 (3=40-59%)	1 (1=0-19%)	2 (2=20-39%)	2 (2=20-39%)	4 (4=60-79%)	4 (4=60-79%)
COC(C)C(=O)Nc1c(OC(F)(F)F)ccc(C(=O)Nc2nnnn2C)c1Cl (stereo not drawn) [Compound 1.063]	4 (4=60-79%)	5 (5=80-100%)	5 (5=80-100%)	5 (5=80-100%)	5 (5=80-100%)	5 (5=80-100%)	5 (5=80-100%)	5 (5=80-100%)	5 (5=80-100%)	5 (5=80-100%)
CCOC(C)C(=O)Nc1c(OC(F)(F)F)ccc(C(=O)Nc2nnnn2C)c1Cl (stereo not drawn) [Compound 1.065]	5 (5=80-100%)	5 (5=80-100%)	5 (5=80-100%)	5 (5=80-100%)	5 (5=80-100%)	5 (5=80-100%)	5 (5=80-100%)	5 (5=80-100%)	5 (5=80-100%)	5 (5=80-100%)
